IC50 and MIC data for eight molecules are collected here from patent US10800791B2, “Triazole ACC inhibitors and uses thereof” (Gilead Apollo, LLC, priority 2015, dated 2020).

One assay has as its target human (hACC2) (Homo sapiens, UniProt O00763). The assay is described as follows: In vitro ACC inhibition assay (ADP-Glo), hACC2. Format: biochemical. The settings on record: 5 nM ACC2, 20 μM ATP, 20 μM acetyl-CoA. The procedure:
The detailed procedure is as follows. […] 10 μL ADP glo reagent was added. […] 20 μL kinase detection reagent was added.

Another assay deals with C. albicans. Description: Antifungal Activity Assay (broth microtiter MIC), C. albicans. The settings on record: Candida albicans, ATCC90028, 48 h. Format: cell-based, Candida albicans. The procedure: (§1) Compounds of the present invention were evaluated in an Antifungal Activity Assay. An exemplary procedure for the assay, which measures the susceptibility of various Candida species to antifungal compounds, follows. Compounds to be tested (including fluconazole and amphotericin B) were dissolved in DMSO to obtain a solution having a concentration of 1 mg/mL. These stock solutions were sterile filtered using a 0.22 um nylon syringe filter, then diluted in sterile water to achieve a final concentration of 128 μg/mL.
(§2) All species were grown from frozen stock by directly plating on to freshly prepared Sabouraud Dextrose agar (BD, Difco) and incubated overnight in ambient air at 35° C. for 24 h. A direct suspension was prepared in RPMI 1640+MOPS (Lonza, Biowhittaker) by taking individual colonies from the overnight cultures using sterile swabs soaked in sterile saline. The concentration of the suspension was determined using pre-determined standard curves. These suspensions were then diluted down to 5×10^3 CFU/mL to achieve a final concentration of 2.5×10^3 CFU/mL once added to the microtiter plate as per CLSI guidelines (M27-A3, Vol. 28 No. 14).
(§3) Broth microtiter MIC challenge plates were prepared following CLSI guidelines (M27-A3, Vol. 28 No. 14). The original CLSI guidelines focused on reading Candida MICs after 48 h of incubation. As reading after only 24 h offers a clear advantage of patient care, QC limits are being established for all drugs at 24 h. That being said there are no known interpretive breakpoints for amphotericin B at 24 h and the current fluconazole interpretive breakpoints are based on a 48 h reading. The MICs for the test compounds were recorded at 48 h. All MIC determinations were achieved by visually comparing the growth found in the antibiotic challenged wells to that of the growth control.

The test system of the next assay is C. krusei. Description: Antifungal Activity Assay (broth microtiter MIC), C. krusei. The assay is classed as cell-based, Candida krusei. The settings on record: Pichia kudriavzevii, ATCC6258, 48 h. As for the experimental part:
as §1, §2, §3

For another assay, the system named is C. parapsilosis. The assay is described as follows: Antifungal Activity Assay (broth microtiter MIC), C. parapsilosis. The assay is classed as cell-based, Candida parapsilosis. The settings on record: Lodderomyces parapsilosis, ATCC22019, 48 h. As for the experimental part: as §1, §2, §3
Another assay has as its target fungal (fACC2) (UniProt Q00955). The settings on record: read-out: fACC2 (in vitro ACC2 Inhibition Assay, IC50), ADP-Glo, 5 nM ACC2, 20 μM ATP, 20 μM acetyl-CoA.
Setting [1] is: Table 3a, ATCC 90028, 3 replicates, MIC recorded at 48 h, read-out: MIC, C. albicans ATCC 90028.
Where [2] appears, read: Table 3b (additional results), ATCC 90028, 3 replicates, MIC recorded at 48 h, read-out: MIC, C. albicans ATCC 90028.
The mark [3] stands for this setting: Table 3a, ATCC 6258, 3 replicates, MIC recorded at 48 h, read-out: MIC, C. krusei ATCC 6258.
Where [4] appears, read: Table 3b (additional results), ATCC 6258, 3 replicates, MIC recorded at 48 h, read-out: MIC, C. krusei ATCC 6258.
The mark [5] stands for this setting: Table 3a, ATCC 22019, 3 replicates, MIC recorded at 48 h, read-out: MIC, C. parapsilosis ATCC 22019.
The mark [6] stands for this setting: Table 3b (additional results), ATCC 22019, 3 replicates, MIC recorded at 48 h, read-out: MIC, C. parapsilosis ATCC 22019.
The mark [7] stands for this setting: read-out: MIC, C. albicans ATCC 90028, Table 3b (additional results), 3 replicates, MIC recorded at 48 h.
Setting [8] is: read-out: MIC, C. krusei ATCC 6258, Table 3b (additional results), 3 replicates, MIC recorded at 48 h.
The mark [9] stands for this setting: read-out: MIC, C. parapsilosis ATCC 22019, Table 3b (additional results), 3 replicates, MIC recorded at 48 h.

Each structure is given as a SMILES string. Values after ≈ are worked out from the molar mass of the structure shown. Read-outs that look alike come from different tables or passages of the source. Where only a bound is given, the exact number is not on record here.

One may read the IC50 as the concentration needed to halve the response being measured. What is called MIC is the least concentration at which growth counts as inhibited.

Sequence of fungal (fACC2) (Q00955 whole entry): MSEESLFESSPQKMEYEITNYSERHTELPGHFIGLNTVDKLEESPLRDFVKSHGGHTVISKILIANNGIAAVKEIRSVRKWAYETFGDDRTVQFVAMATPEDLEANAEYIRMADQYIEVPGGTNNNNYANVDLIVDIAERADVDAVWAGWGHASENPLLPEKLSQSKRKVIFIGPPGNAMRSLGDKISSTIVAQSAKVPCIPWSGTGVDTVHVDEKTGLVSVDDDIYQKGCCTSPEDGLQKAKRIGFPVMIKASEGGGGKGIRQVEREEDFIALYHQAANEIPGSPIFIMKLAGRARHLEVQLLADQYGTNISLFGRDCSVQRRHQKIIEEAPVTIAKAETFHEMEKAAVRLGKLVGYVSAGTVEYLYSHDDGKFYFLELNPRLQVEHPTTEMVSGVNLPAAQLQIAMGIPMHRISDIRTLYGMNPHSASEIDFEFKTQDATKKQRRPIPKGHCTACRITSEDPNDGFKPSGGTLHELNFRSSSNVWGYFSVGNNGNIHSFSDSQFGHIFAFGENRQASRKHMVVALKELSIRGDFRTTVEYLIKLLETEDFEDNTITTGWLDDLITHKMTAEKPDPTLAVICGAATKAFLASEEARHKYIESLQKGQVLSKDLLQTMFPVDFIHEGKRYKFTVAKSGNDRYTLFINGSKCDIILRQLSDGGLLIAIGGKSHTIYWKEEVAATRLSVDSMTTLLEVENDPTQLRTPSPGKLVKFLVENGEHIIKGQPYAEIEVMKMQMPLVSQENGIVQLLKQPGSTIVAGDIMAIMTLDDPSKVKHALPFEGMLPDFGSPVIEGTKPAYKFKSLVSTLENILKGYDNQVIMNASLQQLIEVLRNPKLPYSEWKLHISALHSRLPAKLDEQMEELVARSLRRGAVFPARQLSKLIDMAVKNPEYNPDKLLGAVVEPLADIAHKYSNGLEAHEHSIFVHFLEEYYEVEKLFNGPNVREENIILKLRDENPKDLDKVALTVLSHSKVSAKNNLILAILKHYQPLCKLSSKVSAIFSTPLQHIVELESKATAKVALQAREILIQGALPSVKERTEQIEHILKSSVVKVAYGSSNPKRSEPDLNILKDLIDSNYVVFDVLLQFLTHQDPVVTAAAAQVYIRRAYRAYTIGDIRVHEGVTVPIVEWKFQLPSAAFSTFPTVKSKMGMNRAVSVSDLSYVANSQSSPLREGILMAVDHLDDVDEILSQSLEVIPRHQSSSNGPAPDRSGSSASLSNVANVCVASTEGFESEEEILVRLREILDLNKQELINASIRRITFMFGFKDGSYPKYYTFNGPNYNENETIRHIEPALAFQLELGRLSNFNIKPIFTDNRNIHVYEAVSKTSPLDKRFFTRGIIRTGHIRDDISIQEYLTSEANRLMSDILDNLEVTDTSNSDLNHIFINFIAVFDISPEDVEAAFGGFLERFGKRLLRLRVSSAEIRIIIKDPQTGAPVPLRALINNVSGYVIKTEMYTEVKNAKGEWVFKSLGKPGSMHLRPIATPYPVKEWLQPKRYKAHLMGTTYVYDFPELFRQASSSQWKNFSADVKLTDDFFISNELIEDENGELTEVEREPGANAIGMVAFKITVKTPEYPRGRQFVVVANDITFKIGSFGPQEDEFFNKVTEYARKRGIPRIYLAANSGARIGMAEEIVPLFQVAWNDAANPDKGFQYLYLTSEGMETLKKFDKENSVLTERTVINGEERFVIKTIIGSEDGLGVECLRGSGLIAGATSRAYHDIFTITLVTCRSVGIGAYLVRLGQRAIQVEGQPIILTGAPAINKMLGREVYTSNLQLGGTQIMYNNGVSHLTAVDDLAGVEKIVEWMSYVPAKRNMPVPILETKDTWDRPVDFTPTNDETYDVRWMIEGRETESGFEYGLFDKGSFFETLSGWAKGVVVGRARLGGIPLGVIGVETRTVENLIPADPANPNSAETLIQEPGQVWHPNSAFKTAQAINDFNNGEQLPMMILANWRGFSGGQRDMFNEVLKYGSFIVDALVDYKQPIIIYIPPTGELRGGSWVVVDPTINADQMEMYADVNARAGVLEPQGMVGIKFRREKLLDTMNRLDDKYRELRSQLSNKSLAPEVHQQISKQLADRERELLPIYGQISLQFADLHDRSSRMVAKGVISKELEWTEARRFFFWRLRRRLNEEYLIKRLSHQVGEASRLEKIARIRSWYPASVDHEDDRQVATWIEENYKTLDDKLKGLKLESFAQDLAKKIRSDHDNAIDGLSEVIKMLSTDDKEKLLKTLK
Sequence of human (hACC2) (O00763 whole entry): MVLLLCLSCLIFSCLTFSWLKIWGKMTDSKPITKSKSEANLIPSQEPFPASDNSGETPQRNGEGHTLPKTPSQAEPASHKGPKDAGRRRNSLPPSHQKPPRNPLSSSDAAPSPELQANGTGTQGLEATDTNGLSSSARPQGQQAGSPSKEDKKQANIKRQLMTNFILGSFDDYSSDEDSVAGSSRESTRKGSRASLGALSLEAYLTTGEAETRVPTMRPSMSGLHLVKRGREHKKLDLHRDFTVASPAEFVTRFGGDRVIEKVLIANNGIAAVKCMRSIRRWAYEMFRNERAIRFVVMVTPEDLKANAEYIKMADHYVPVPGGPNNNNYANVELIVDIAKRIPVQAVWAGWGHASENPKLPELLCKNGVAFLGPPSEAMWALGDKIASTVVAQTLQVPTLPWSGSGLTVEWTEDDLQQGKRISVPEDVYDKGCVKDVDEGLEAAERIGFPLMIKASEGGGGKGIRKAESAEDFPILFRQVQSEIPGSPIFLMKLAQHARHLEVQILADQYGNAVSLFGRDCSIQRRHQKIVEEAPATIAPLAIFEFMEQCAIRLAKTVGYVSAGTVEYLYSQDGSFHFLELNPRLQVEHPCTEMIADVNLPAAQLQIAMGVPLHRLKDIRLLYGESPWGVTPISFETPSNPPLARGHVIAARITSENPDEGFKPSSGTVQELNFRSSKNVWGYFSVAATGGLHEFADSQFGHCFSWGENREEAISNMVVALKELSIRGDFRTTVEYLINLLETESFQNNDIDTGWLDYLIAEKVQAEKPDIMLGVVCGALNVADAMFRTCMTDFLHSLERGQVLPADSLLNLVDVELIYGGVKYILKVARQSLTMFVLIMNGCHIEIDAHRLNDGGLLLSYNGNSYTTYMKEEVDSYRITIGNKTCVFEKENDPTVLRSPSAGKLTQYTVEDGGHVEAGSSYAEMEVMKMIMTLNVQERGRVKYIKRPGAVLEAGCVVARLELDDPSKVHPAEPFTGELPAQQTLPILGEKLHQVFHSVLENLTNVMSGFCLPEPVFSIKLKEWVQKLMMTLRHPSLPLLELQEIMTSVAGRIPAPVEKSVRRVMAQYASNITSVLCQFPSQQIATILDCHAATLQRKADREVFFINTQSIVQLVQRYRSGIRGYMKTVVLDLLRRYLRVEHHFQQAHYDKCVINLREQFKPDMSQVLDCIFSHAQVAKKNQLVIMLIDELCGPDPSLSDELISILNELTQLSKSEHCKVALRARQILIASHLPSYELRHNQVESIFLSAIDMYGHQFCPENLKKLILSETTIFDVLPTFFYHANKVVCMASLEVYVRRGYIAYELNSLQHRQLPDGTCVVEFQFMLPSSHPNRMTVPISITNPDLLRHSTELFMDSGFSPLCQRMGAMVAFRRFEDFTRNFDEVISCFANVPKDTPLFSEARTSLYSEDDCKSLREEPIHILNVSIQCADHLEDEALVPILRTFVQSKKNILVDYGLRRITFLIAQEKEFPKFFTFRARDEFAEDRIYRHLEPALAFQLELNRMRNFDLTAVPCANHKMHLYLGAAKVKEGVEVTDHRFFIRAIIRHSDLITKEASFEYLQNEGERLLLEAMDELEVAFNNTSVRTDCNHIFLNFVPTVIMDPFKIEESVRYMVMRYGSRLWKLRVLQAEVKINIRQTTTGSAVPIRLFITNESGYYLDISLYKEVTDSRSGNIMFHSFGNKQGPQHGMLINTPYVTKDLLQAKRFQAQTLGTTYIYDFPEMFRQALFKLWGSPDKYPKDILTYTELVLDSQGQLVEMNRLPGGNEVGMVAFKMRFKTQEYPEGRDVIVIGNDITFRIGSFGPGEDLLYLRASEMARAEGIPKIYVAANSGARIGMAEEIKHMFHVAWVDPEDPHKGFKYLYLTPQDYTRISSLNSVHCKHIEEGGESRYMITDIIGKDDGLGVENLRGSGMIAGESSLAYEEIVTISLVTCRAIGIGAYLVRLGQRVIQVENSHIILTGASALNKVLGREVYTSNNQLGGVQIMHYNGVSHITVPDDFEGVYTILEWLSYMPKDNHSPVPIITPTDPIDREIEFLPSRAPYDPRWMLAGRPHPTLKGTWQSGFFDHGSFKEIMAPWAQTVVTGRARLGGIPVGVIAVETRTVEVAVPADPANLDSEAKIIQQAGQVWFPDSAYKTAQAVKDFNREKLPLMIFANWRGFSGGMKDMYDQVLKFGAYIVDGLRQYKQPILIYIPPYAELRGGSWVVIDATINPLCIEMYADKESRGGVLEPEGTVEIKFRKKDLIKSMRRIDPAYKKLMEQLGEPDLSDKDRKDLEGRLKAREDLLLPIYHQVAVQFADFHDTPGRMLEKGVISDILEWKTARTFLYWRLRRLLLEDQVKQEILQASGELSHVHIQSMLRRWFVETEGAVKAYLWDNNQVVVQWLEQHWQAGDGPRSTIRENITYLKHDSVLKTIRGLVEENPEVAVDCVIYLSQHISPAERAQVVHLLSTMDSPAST
Method for fungal (fACC2): An exemplary procedure for the in vitro ACC inhibition assay, which can be used to determine the inhibitory action of compounds of the invention toward either human (hACC2) or fungal (fACC2), follows. The ADP-Glo™ Kinase Assay kit from Promega was used. The ADP-Glo™ Kinase Assay is a luminescent ADP detection assay to measure enzymatic activity by quantifying the amount of ADP produced during an enzyme reaction. The assay is performed in two steps; first, after the enzyme reaction, an equal volume of ADP-Glo™ Reagent is added to terminate the reaction and deplete the remaining ATP. Second, the Kinase Detection Reagent is added to simultaneously convert ADP to ATP and allow the newly synthesized ATP to be measured using a luciferase/luciferin reaction. Luminescence can be correlated to ADP concentrations by using an ATP-to-ADP conversion curve. […] 50 μL of the compound being tested (600 μM in DMSO) was added to a 384-well dilution plate. The compound was diluted 1:3 in succession in DMSO for each row for 11 wells. 0.5 μL ACC2 working solution was added to 384-well white Optiplate assay plate. 0.5 μL diluted compound solution in each column from step 2 was added to assay plate, each row containing 2 replicates. […] The plates were incubated at room temperature for 15 minutes. 5 μL substrate working solution was added to each well to initiate reaction. Final ACC2 reaction concentrations consist of: 5 nM ACC2, 20 μM ATP, 20 μM acetyl-CoA, 12 mM NaHCO3, 0.01% Brij35, 2 mM DTT, 5% DMSO, test compound concentrations: 30 μM, 10 μM, 3.33 μM, 1.11 μM, 0.37 μM, 0.123 μM, 0.0411 μM, 0.0137 μM, 0.00457 μM, 0.00152 μM, and 0.00051 μM. Plates were incubated at room temperature for 60 minutes. 10 μL ADP glo reagent was added. Plates were incubated at room temperature for 40 minutes. 20 μL kinase detection reagent was added. Plates were incubated at room temperature for 40 minutes, and then read on a Perkin Elmer EnVision 2104 plate reader for luminescence as Relative Light Units (RLU).
Data for each concentration, as well as the positive and negative controls were averaged, and the standard deviation calculated. Percent inhibition was calculated by the formula: 100×(average negative control−compound)/(average negative control−average positive control). The IC50 for each compound was calculated by fitting the data with a non-linear regression equation: Y=Bottom+(Top−Bottom)/(1+10 ((Log IC50−X)*HillSlope)), where X is the log of compound concentration and Y is percent inhibition.

For the molecule `COc1ccc(F)cc1[C@H](Cn1c(=O)n(C(C)(C)C(=O)NC(C)C)c(=O)c2c(C)c(-n3nccn3)sc21)OCC(C)=O` [Compound I-97], the concentration for half-maximal inhibition (IC50) is 1 to 5 nM against human (hACC2) (Table 2a); 1 to 5 nM against human (hACC2) (Table 2b, additional results); 0.4 to 1 nM on fungal (fACC2) (Table 2a); 0.3 to 1 nM at fungal (fACC2) (Table 2b, additional results). In addition, the MIC is 0.25 to 1 µg/mL (≈ 0.416 to 1.66 µM) in the assay with C. albicans (setting [1]); 1.01 to 2 µg/mL (≈ 1.68 to 3.33 µM) in the assay on C. albicans (setting [2]); 0.06 to 0.24 µg/mL (≈ 0.0999 to 0.4 µM) in the assay with C. krusei (setting [3]); 0.25 to 1 µg/mL (≈ 0.416 to 1.66 µM) with C. krusei (setting [4]); 0.25 to 1 µg/mL (≈ 0.416 to 1.66 µM) in the assay with C. parapsilosis (setting [5]); 1.01 to 2 µg/mL (≈ 1.68 to 3.33 µM) in the assay on C. parapsilosis (setting [6]).
Regarding `COc1ccc(F)cc1[C@H](Cn1c(=O)n(C(C)(C)C(=O)N2CCCC2)c(=O)c2c(C)c(-n3nccn3)sc21)OCC(C)=O` [Compound I-98], the IC50 on human (hACC2) (Table 2a) was in the range of 5 to 10 nM; against human (hACC2) (Table 2b, additional results), 5 to 10 nM; on fungal (fACC2) (Table 2a), 1 to 5 nM; at fungal (fACC2) (Table 2b, additional results), 1 to 5 nM. The MIC fell in the range of 2.1 to 4 µg/mL (≈ 3.43 to 6.53 µM) with C. albicans (setting [1]); 1.01 to 2 µg/mL (≈ 1.65 to 3.26 µM) with C. albicans (setting [2]); 0.25 to 1 µg/mL (≈ 0.408 to 1.63 µM) with C. krusei (setting [3]); 2.01 to 4 µg/mL (≈ 3.28 to 6.53 µM) in the assay with C. krusei (setting [4]); 2.1 to 4 µg/mL (≈ 3.43 to 6.53 µM) in the assay on C. parapsilosis (setting [5]); 1.01 to 2 µg/mL (≈ 1.65 to 3.26 µM) in the assay on C. parapsilosis (setting [6]).
`COc1ccc(F)cc1[C@H](Cn1c(=O)n(C(C)C(=O)NC(C)C)c(=O)c2c(C)c(-n3nccn3)sc21)OCC(C)(C)O` (stereo partly drawn) [Compound I-132]: the minimal inhibitory concentration (MIC) with C. albicans (setting [1]) fell in the range of 0.25 to 1 µg/mL (≈ 0.415 to 1.66 µM); in the assay on C. albicans (setting [2]), 1.01 to 2 µg/mL (≈ 1.68 to 3.32 µM); with C. krusei (setting [3]) it was 0.25 to 1 µg/mL (≈ 0.415 to 1.66 µM); with C. krusei (setting [4]), 2.01 to 4 µg/mL (≈ 3.34 to 6.64 µM); with C. parapsilosis (setting [5]), 0.25 to 1 µg/mL (≈ 0.415 to 1.66 µM); in the assay with C. parapsilosis (setting [6]) it was 1.01 to 2 µg/mL (≈ 1.68 to 3.32 µM).
`COc1ccc(F)cc1[C@H](Cn1c(=O)n(C(C)(C)C(=O)NC(C)C)c(=O)c2c(C)c(-n3nccn3)sc21)OC(C)(C)C(C)=O` [Compound I-178]: the IC50 on human (hACC2) (Table 2a) was in the range of 10 to 40 nM; at human (hACC2) (Table 2b, additional results) it was 10 to 40 nM. In addition, the minimal inhibitory concentration (MIC) with C. albicans (setting [7]), with C. krusei (setting [8]) and in the assay on C. parapsilosis (setting [9]) was 0.25 to 1 µg/mL (≈ 0.398 to 1.59 µM) each time.
`COc1ccccc1[C@@H](O)Cn1c(=O)n(C(C)(C)C(=O)OCc2ccccc2)c(=O)c2c(C)c(-n3nccn3)sc21` [Compound I-179]: the IC50 against human (hACC2) (Table 2a) was > 40 nM; against human (hACC2) (Table 2b, additional results) it was > 40 nM. The MIC in the assay with C. albicans (setting [2]) is > 4.01 µg/mL; in the assay with C. krusei (setting [4]), > 4.01 µg/mL; with C. parapsilosis (setting [6]) it was 2.01 to 4 µg/mL (≈ 3.49 to 6.95 µM).
With `COc1ccc(F)cc1[C@H](Cn1c(=O)n(C(C)(C)C(=O)N2CC=CC2)c(=O)c2c(C)c(-n3nccn3)sc21)OCC(C)=O` [Compound I-190], the IC50 against human (hACC2) (Table 2b, additional results) lay within 5 to 10 nM. For the same molecule, the MIC in the assay on C. albicans (setting [2]) is > 4.01 µg/mL; in the assay on C. krusei (setting [4]) it was > 4.01 µg/mL; in the assay on C. parapsilosis (setting [6]), 2.01 to 4 µg/mL (≈ 3.29 to 6.55 µM).
For `Cc1c(-n2nccn2)sc2c1c(=O)n(C(C)(C)C(=O)NC(C)C)c(=O)n2C[C@H](O)c1cc(F)ccc1OCC#N` [Compound I-199], the IC50 on human (hACC2) (Table 2b, additional results) is 5 to 10 nM. Also, the minimum inhibitory concentration (MIC) in the assay with C. albicans (setting [7]) lay within 2.01 to 4 µg/mL (≈ 3.53 to 7.02 µM); with C. krusei (setting [8]), 2.01 to 4 µg/mL (≈ 3.53 to 7.02 µM); in the assay on C. parapsilosis (setting [9]), 1.01 to 2 µg/mL (≈ 1.77 to 3.51 µM).
Turning to `Cc1c(-n2nccn2)sc2c1c(=O)n(C(C)(C)C(=O)NC(C)C)c(=O)n2C[C@H](OCC(C)(C)O)c1cc(F)ccc1O` [Compound I-236], at human (hACC2) (Table 2b, additional results), the IC50 was 10 to 40 nM. Moreover, the minimal inhibitory concentration (MIC) in the assay with C. albicans (setting [2]) lay within 1.01 to 2 µg/mL (≈ 1.68 to 3.32 µM); in the assay on C. krusei (setting [4]) it was 2.01 to 4 µg/mL (≈ 3.34 to 6.64 µM); in the assay with C. parapsilosis (setting [6]), 2.01 to 4 µg/mL (≈ 3.34 to 6.64 µM).
